Results on one compound are retold here after patent US7728128B2, “Dibenzo[c,h][1,5]naphthyridines and their use as DNA probes” (Institut National de la Sante et de la Recherche Medicate …, priority 2006, dated 2010).

The subject of this assay is CT DNA. Description: viscometry (hydrodynamic studies) of CT DNA solutions. Type of assay: binding, calf. As to conditions: CT DNA 0.5 mM, drug 0.1 mM (0.2 dye/bp ratio). The method, then: Calf thymus (CT) DNA was dissolved in 50 mM Na-phosphate buffer, pH 7.2, to a concentration of 0.1 or 0.5 mM relative to base pairs as described in the legend for FIGS. 3A and B. DNA solution was allowed to run through a custom-made capillary viscometer and the time necessary for the meniscus to pass a certain distance was measured using a stopwatch. All experiments were performed at 23° C. Viscosity values were calculated using the equation: η=(t−t0)/t0, where t is the flow time of DNA solution (with or without dye), and t0 is the flow time of Na-phosphate buffer alone. For each control and DNA solutions with dyes flow times were measured three to five times. Viscosity of DNA solutions with dyes were calculated as (η/η0)^1/3, where η0 and η are relative viscosities of the CT DNA solution in the absence and presence of the dye, respectively. This calculation stems from the relationship which exists between the relative solution viscosity and the relative contour length (L/L0): L/L0=(η/η0)^1/3, where L stands for the apparent molecular length (Muller, W. et al., 1968, J Mol Biol, 35, 251-290). Average viscosity values and standard error of the mean (SEM) were determined using (η/η0)^1/3 values calculated for each time flow measurement.
DNA-binding dyes interact with dsDNA by intercalation or external binding, or both. External binding most often involves the minor groove of DNA (Kopka et al.; Pjura, P. E., et al., 1987, J Mol Biol, 197, 257-271). Intercalation occurs when a ligand inserts itself between the opposite strands of DNA. In order to determine the mechanism of compound I binding to dsDNA, the inventors performed hydrodynamic studies. This approach is based on the observation that intercalating molecules increase the length of DNA fragments and, consequently, enhance the viscosity of DNA solutions (Muller W. et al.; Suh, D. et al., 1995, Bioorg Med Chem, 3, 723-728). For this experiment, compound I has been compared to the known DNA intercalator ethidium bromide and to the external minor groove binder Hoechst 33258. CT DNA at 0.5 mM was mixed with drugs at 0.1 mM concentration (0.2 dye/bp ratio) and used for viscometry measurements.
The inventors then wondered whether the increase in viscosity is equally matched by the increase in fluorescence intensity. To answer this question, CT DNA at 0.1 mM (bp) was mixed with increasing amounts of compound I and viscosity measurements were performed as above. The viscosity of the DNA/compound I solutions increased up to a dye/bp ratio 1 (FIG. 3B). To correlate the increase in viscosity with fluorescence, the inventors measured fluorescence intensities at 484 nm of the compound I/DNA solutions used for the viscosity measurements.

The structures appear in SMILES notation.

Turning to `CN1CCN(c2ccc3[nH]c(-c4ccc5[nH]c(-c6ccc(O)cc6)nc5c4)nc3c2)CC1` [Hoechst 33258, reference compound], the “effect on viscosity of DNA solution” value is “decrease slightly”.
